Laboratory results as given in the supplement of paper PMC10307832.

Key:
Assay in all cases: relative viability (nuclei count vs DMSO), 5 days (fraction); higher = more cells survive
[1] = test system: A549
Outline: (§1)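 Lung cancer cell lines in 1536-well plates got either a single drug or a fixed anchor-drug dose together with five library-drug doses (not always all listed) in √10 steps, by pin tool, on the day after seeding. Nuclei were counted after 5 days, and relative viability is the treated-to-vehicle ratio of nuclei counts. Values are medians of duplicate plates.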

[2] = test system: Calu-6
Outline: as §1

[3] = test system: EBC-1
Outline: as §1

[4] = test system: HCC-78
Outline: as §1

[5] = test system: IA-LM
Outline: as §1

[6] = test system: NCI-H1299
Outline: as §1

[7] = test system: NCI-H1703
Outline: as §1

[8] = test system: NCI-H2009
Outline: as §1

[9] = test system: NCI-H460
Outline: as §1

[10] = test system: NCI-H661
Outline: as §1

O=c1cc(-c2cccc3c2Sc2ccccc2S3)oc(N2CCOCC2)c1 + Cc1nc(NC(=O)N2CCC[C@H]2C(N)=O)sc1-c1ccnc(C(C)(C)C(F)(F)F)c1 [Alpelisib] (partner 2 µM)
relative viability ([1]; first compound 0.08 µM): 0.738 | relative viability ([1]; first compound 0.253 µM): 0.958 | relative viability ([1]; first compound 0.8 µM): 0.857 | relative viability ([1]; first compound 2.53 µM): 0.659 | relative viability ([1]; first compound 8 µM): 0.653 | relative viability ([2]; first compound 0.08 µM): 0.841 | relative viability ([2]; first compound 0.253 µM): 1.12 | relative viability ([2]; first compound 0.8 µM): 1 | relative viability ([2]; first compound 2.53 µM): 0.923 | relative viability ([2]; first compound 8 µM): 1.06 | relative viability ([3]; first compound 0.08 µM): 0.792 | relative viability ([3]; first compound 0.253 µM): 1.03 | relative viability ([3]; first compound 0.8 µM): 0.816 | relative viability ([3]; first compound 2.53 µM): 0.755 | relative viability ([3]; first compound 8 µM): 0.522 | relative viability ([4]; first compound 0.08 µM): 0.355 | relative viability ([4]; first compound 0.253 µM): 0.319 | relative viability ([4]; first compound 0.8 µM): 0.305 | relative viability ([4]; first compound 2.53 µM): 0.307 | relative viability ([4]; first compound 8 µM): 0.339 | relative viability ([5]; first compound 0.08 µM): 0.664 | relative viability ([5]; first compound 0.253 µM): 1.06 | relative viability ([5]; first compound 0.8 µM): 0.852 | relative viability ([5]; first compound 2.53 µM): 0.862 | relative viability ([5]; first compound 8 µM): 0.677 | relative viability ([6]; first compound 0.08 µM): 1.03 | relative viability ([6]; first compound 0.253 µM): 1.09 | relative viability ([6]; first compound 0.8 µM): 1.13 | relative viability ([6]; first compound 2.53 µM): 1.03 | relative viability ([6]; first compound 8 µM): 1.08 | relative viability ([7]; first compound 0.253 µM): 0.459 | relative viability ([7]; first compound 0.8 µM): 0.296 | relative viability ([7]; first compound 2.53 µM): 0.245 | relative viability ([7]; first compound 8 µM): 0.295 | relative viability ([8]; first compound 0.08 µM): 1.18 | relative viability ([8]; first compound 0.253 µM): 1.27 | relative viability ([8]; first compound 0.8 µM): 1.18 | relative viability ([8]; first compound 2.53 µM): 1.14 | relative viability ([8]; first compound 8 µM): 0.811 | relative viability ([9]; first compound 0.08 µM): 0.472 | relative viability ([9]; first compound 0.253 µM): 0.682 | relative viability ([9]; first compound 0.8 µM): 0.451 | relative viability ([9]; first compound 2.53 µM): 0.57 | relative viability ([9]; first compound 8 µM): 0.394 | relative viability ([10]; first compound 0.08 µM): 0.541 | relative viability ([10]; first compound 0.253 µM): 0.753 | relative viability ([10]; first compound 0.8 µM): 0.594 | relative viability ([10]; first compound 2.53 µM): 0.512 | relative viability ([10]; first compound 8 µM): 0.98

O=c1cc(N2CCOCC2)oc2c(-c3cccc4c3sc3ccccc34)cccc12 + CS(=O)(=O)CCNCc1ccc(-c2ccc3ncnc(Nc4ccc(OCc5cccc(F)c5)c(Cl)c4)c3c2)o1 [Lapatinib] (partner 2 µM)
relative viability ([1]; first compound 0.01 µM): 0.964 | relative viability ([1]; first compound 0.03162 µM): 0.931 | relative viability ([1]; first compound 0.1 µM): 0.997 | relative viability ([1]; first compound 0.3162 µM): 0.979 | relative viability ([1]; first compound 1 µM): 0.968 | relative viability ([2]; first compound 0.01 µM): 1.08 | relative viability ([2]; first compound 0.03162 µM): 1.11 | relative viability ([2]; first compound 0.1 µM): 1.17 | relative viability ([2]; first compound 0.3162 µM): 1.08 | relative viability ([2]; first compound 1 µM): 1.05 | relative viability ([3]; first compound 0.01 µM): 0.227 | relative viability ([3]; first compound 0.03162 µM): 0.207 | relative viability ([3]; first compound 0.1 µM): 0.246 | relative viability ([3]; first compound 0.3162 µM): 0.237 | relative viability ([3]; first compound 1 µM): 0.227 | relative viability ([4]; first compound 0.01 µM): 1.03 | relative viability ([4]; first compound 0.03162 µM): 0.856 | relative viability ([4]; first compound 0.1 µM): 0.785 | relative viability ([4]; first compound 0.3162 µM): 0.785 | relative viability ([4]; first compound 1 µM): 0.652 | relative viability ([5]; first compound 0.01 µM): 0.764 | relative viability ([5]; first compound 0.03162 µM): 0.582 | relative viability ([5]; first compound 0.1 µM): 0.663 | relative viability ([5]; first compound 0.3162 µM): 0.86 | relative viability ([5]; first compound 1 µM): 0.602 | relative viability ([6]; first compound 0.01 µM): 0.957 | relative viability ([6]; first compound 0.03162 µM): 0.957 | relative viability ([6]; first compound 0.1 µM): 0.969 | relative viability ([6]; first compound 0.3162 µM): 0.961 | relative viability ([6]; first compound 1 µM): 0.964 | relative viability ([7]; first compound 0.01 µM): 1.36 | relative viability ([7]; first compound 0.03162 µM): 0.815 | relative viability ([7]; first compound 0.1 µM): 1.27 | relative viability ([7]; first compound 0.3162 µM): 1.17 | relative viability ([7]; first compound 1 µM): 1.01 | relative viability ([8]; first compound 0.01 µM): 0.906 | relative viability ([8]; first compound 0.03162 µM): 0.915 | relative viability ([8]; first compound 0.1 µM): 0.895 | relative viability ([8]; first compound 0.3162 µM): 0.94 | relative viability ([8]; first compound 1 µM): 1.15 | relative viability ([9]; first compound 0.01 µM): 0.926 | relative viability ([9]; first compound 0.03162 µM): 1.07 | relative viability ([9]; first compound 0.1 µM): 1.09 | relative viability ([9]; first compound 0.3162 µM): 0.807 | relative viability ([9]; first compound 1 µM): 1.11 | relative viability ([10]; first compound 0.01 µM): 0.487 | relative viability ([10]; first compound 0.03162 µM): 0.531 | relative viability ([10]; first compound 0.1 µM): 0.603 | relative viability ([10]; first compound 0.3162 µM): 0.473 | relative viability ([10]; first compound 1 µM): 0.522
